Data reported in US20060159715A1, “Conjugate of fine porous particles with polymer molecules and the utilization thereof” (priority 2003, published 2006).

Settings: L-DOPA added after three-hour incubation in phosphate buffer; FIG. 5
Excerpt: Hydroquinone was supported on conjugate in the same manner as in Example 4 except that hydroquinone was used in place of pyrene. Hydroquinone and clay particles-supported hydroquinone were examined for the resistance to the oxidation of L-DOPA.

SMILES: Oc1ccc(O)cc1 [hydroquinone, Hydroquinone]
- antioxidation property against L-DOPA oxidation: completely lost antioxidation property
